{"source": "paper PMC4527344", "about": "(Tetrahedron letters, 2015)", "system": "M. tuberculosis", "data": [{"compound": "CCOC(=O)CSc1nc(N)c2c3c(sc2n1)CC(C(C)(C)C)CC3", "note": "(stereo not shown) [CD117]", "values": [{"measurement": "CD117-resistant mutants obtained", "value": "unable to obtain CD117-resistant mutants"}]}]}
